According to patent US20250051355A1, “COMPOUNDS, COMPOSITIONS, AND METHODS” (ACONCAGUA BIO, INC., priority 2023, published 2025):

How the values were obtained:
[1] = target: human calcitonin receptor (CTR) and RAMP3 (AMY3) (Homo sapiens, UniProt O60896+P30988); assay: Amylin Receptor cAMP Assay II; type: cell-based; conditions: COS-7/AMY3 cells, cAMP dynamic 2 kit, read-out: Amylin Receptor cAMP Stimulation Activity: EC50
Excerpt: Amylin Receptor cAMPAssay II
AMYRs are heterodimers of the class B calcitonin (CT) G-protein-coupled receptor (CTR) and receptor activity-modifying proteins (RAMPs). All three RAMPs can interact with the CTR and form AMY1, AMY2, AMY3 with RAMP1, RAMP2 and RAMP3, respectively. Like other class B1 GPCRs, the CT receptor family is canonically coupled to Gs-mediated cAMP production, and measurement of cAMP accumulation has been the primary assay used to determine peptide selectivity and potency.
(§1) To optimize functional activity directed toward Gas coupling, COS-7 cells were stably transfected with human calcitonin receptor (CTR) and RAMP3, simultaneously. 100×concentration of compound working solutions were prepared with 4-fold serial dilution in 384-well Echo LDV plate (Labcyte, Cat #LP-0200-BC). 200 nL/well 100×concentration of compound working solutions were moved to 384-well white microplate (Perkin Elmer, Cat #6007680) using Labcyte ECHO550. […] cells/mL COS-7/AMY3 cell suspensions prepared with assay buffer [HBSS containing 20 mM HEPES (Gibco, Cat #15630-080), 0.5 mM IBMX (Sigma, Cat #15879) and 0.1% Casein (Sigma, Cat #C4765)], 20 μL cell suspensions were added to each well of previous generated assay plate which already contains 200 nL compound at 100×concentration using ThermoFisher Multidrop Combi (2000 cells/well). Seal the plate and incubate at 37° C. with 5% CO2 for 30 min.
(§2) After incubation, the cAMP assay signal was generated using cAMP dynamic 2 kit (Revvity, Cat #62AM4PEC). 10 μL cAMP-d2 working solution was added to each well, followed by 10 μL Anti-cAMP antibody-cryptate working solution which was added to each well using CERTUS FLEX LIQUID DISPENSER The samples were then incubated at room temperature for 1 hour protected from light. the fluorescence was read at 665 and 615 nm with Reader PerkinElmer EnVision 2105.

[2] = target: T1, human calcitonin receptor (CTR) (Homo sapiens, UniProt P30988); assay: Calcitonin receptor (CTR) cAMP Assay; type: cell-based; conditions: COS7-human CTR Clone #2 cells, cAMP dynamic 2 kit; read-out: Calcitonin Receptor cAMP Stimulation Activity: EC50
T1 construct: expressed in transfected cells; host or cells: COS-7 (COS7-human CTR Clone #2)
T1 sequence (P30988 25-474): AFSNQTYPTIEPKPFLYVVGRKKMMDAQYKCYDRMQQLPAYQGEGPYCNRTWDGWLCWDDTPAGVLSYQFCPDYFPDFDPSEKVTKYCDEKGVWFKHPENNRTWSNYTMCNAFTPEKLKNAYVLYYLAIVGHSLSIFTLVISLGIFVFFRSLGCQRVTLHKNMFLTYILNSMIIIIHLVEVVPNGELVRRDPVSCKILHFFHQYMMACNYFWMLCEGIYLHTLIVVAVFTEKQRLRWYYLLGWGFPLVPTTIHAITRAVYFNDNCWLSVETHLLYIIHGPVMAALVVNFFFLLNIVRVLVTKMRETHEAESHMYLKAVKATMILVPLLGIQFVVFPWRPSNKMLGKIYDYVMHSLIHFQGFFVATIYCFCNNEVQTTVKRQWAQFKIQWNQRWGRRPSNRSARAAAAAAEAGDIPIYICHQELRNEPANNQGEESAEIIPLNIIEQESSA
Excerpt: Calcitonin receptor (CTR) cAMPAssay
The calcitonin receptor (CTR) belongs to the subfamily of GPCRs known as the secretin or ‘B’ family of GPCRs. Like other class B1 GPCRs, the CT receptor family is canonically coupled to Gs-mediated cAMP production, and measurement of cAMP accumulation has been the primary assay used to determine peptide selectivity and potency.
as §1, with “to create COS7-human CTR Clone #2 stable cell line. 100× concentration” for “and RAMP3, simultaneously. 100×concentration”, “COS7-human CTR Clone #2” for “COS-7/AMY3”
as §2, with “#62AM4PEC). […] cAMP-d2 working” for “#62AM4PEC). 10 μL cAMP-d2 working”

Chain of human calcitonin receptor (CTR) and RAMP3 (AMY3) (O60896 24-148, one chain of several): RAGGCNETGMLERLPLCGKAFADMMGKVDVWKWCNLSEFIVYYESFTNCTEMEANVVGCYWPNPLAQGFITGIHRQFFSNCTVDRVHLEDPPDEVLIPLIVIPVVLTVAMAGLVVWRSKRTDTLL

Structure (SMILES) | EC50 [1] [nM] | EC50 [2] [nM]
Cc1nnc(-c2c(CCC3C4COCC34)nc3c(c2-c2cc4ccnc(N[C@@H]5CCc6ncccc65)c4s2)S(=O)(=O)CC3C(C)C)o1 (stereo partly drawn) [Compound 115, N—(R)-4-aza-1-indanyl(2-[3-isopropyl-6-(5-methyl-1,3,4-oxadiazol-2-yl)-5-(2-(3-oxabicyclo[3.1.0]hex-6-yl)ethyl}-1,1-dioxo-1λ^6-thia-4-aza-7-indanyl]-1-thia-6-aza-7-indenyl}amine] | 305 | 14.5
Cc1nnc(-c2c(CCc3ccc(F)cc3)nc3c(c2-c2ccc(C(=O)NCc4ccc(F)c(F)c4)s2)C(=O)N2CCOC[C@@H]32)o1 [Compound 68, (R)—N-(3,4-difluorobenzyl)-5-(2-(4-fluorophenethyl)-3-(5-methyl-1,3,4-oxadiazol-2-yl)-5-oxo-7,8,10,10a-tetrahydro-5H-pyrido[2′,3′:3,4]pyrrolo[2,1-c][1,4]oxazin-4-yl)thiophene-2-carboxamide] | 168 | 3
Cc1nnc(-c2c(CCC3CCOCC3)nc3c(c2-c2cnc4c(ccn4Cc4ccc(C#N)cn4)c2)C(=O)N2CCC[C@@H]32)o1 [Compound 124, 6-[(5-((2S)-10-(5-methyl-1,3,4-oxadiazol-2-yl)-7-oxo-11-[2-(tetrahydro-2H-pyran-4-yl)ethyl]-6,12-diazatricyclo[6.4.0.0,^1I]dodeca-1(12),8,10-trien-9-yl}-1H-1,7-diazainden-1-yl)methyl]nicotinonitrile] | 2700 | 216
Cc1nnc(-c2c(CCC3CCOCC3)nc3c(c2-c2cc4ccnc(N[C@H](C)c5cncc(F)c5)c4s2)S(=O)(=O)CC3C(C)C)o1 (stereo partly drawn) [Compound 93, [(R)-1-(5-fluoro-3-pyridyl)ethyl](2-(3-isopropyl-6-(5-methyl-1,3,4-oxadiazol-2-yl)-1,1-dioxo-5-[2-(tetrahydro-2H-pyran-4-yl)ethyl]-1λ^6-thia-4-aza-7-indanyl}-1-thia-6-aza-7-indenyl)amine] | 471 | 42.2
Cc1noc(-c2c(CCC3CCOCC3)nc3c(c2-c2cc4ccnc(N[C@@H]5CCc6ncccc65)c4s2)S(=O)(=O)CC3C(C)C)n1 (stereo partly drawn) [Compound 102, N—(R)-4-aza-1-indanyl(2-(3-isopropyl-6-(3-methyl-1,2,4-oxadiazol-5-yl)-1,1-dioxo-5-[2-(tetrahydro-2H-pyran-4-yl)ethyl]-1λ^6-thia-4-aza-7-indanyl}-1-thia-6-aza-7-indenyl)amine] | 265 | 50
Cc1nnc(-c2c(CCC34CCC(CC3)OC4)nc3c(c2-c2cc4ccnc(N[C@@H]5CCc6ncccc65)c4s2)S(=O)(=O)CC3C(C)C)o1 (stereo partly drawn) [Compound 116, N—(R)-4-aza-1-indanyl(2-[3-isopropyl-6-(5-methyl-1,3,4-oxadiazol-2-yl)-5-(2-(2-oxabicyclo[2.2.2]oct-4-yl)ethyl}-1,1-dioxo-1λ^6-thia-4-aza-7-indanyl]-1-thia-6-aza-7-indenyl}amine] | 216 | 5.02
COc1nnc(-c2c(CCC3CCOCC3)nc3c(c2-c2cc4ccnc(N[C@@H]5CCc6ncccc65)c4s2)S(=O)(=O)CC3C(C)C)o1 (stereo partly drawn) [Compound 123, N—(R)-4-aza-1-indanyl(2-(3-isopropyl-6-(5-methoxy-1,3,4-oxadiazol-2-yl)-1,1-dioxo-5-[2-(tetrahydro-2H-pyran-4-yl)ethyl]-1λ^6-thia-4-aza-7-indanyl}-1-thia-6-aza-7-indenyl)amine] | 4380 | 135
Cc1nnc(-c2c(CCC3CCOCC3)nc3c(c2-c2cc4ccnc(N[C@@H]5CCc6ncccc65)c4o2)S(=O)(=O)CC3C(C)C)o1 (stereo partly drawn) [Compound 90, N—(R)-4-aza-1-indanyl(2-(3-isopropyl-6-(5-methyl-1,3,4-oxadiazol-2-yl)-1,1-dioxo-5-[2-(tetrahydro-2H-pyran-4-yl)ethyl]-1λ^6-thia-4-aza-7-indanyl}-1-oxa-6-aza-7-indenyl)amine] | 1580 | 998

These reach a lower EC50 [1]. Values come first.

EC50 [1] [nM] | EC50 [2] [nM] | Structure (SMILES)
150 | 8.78 | Cc1nnc(-c2c(CCc3ccc(F)cc3)nc3c(c2-c2cc4ccnc(N[C@@H]5CCc6ncccc65)c4s2)c(=O)n2n3CCC2)o1 [Compound 139, 9-(7-[(R)-4-aza-1-indanylamino]-1-thia-6-aza-2-indenyl}-11-[2-(p-fluorophenyl)ethyl]-10-(5-methyl-1,3,4-oxadiazol-2-yl)-2,6,12-triazatricyclo[6.4.0.0^2,6]dodeca-1(8),9,11-trien-7-one]
124 | 5.3 | Cc1nnc(-c2c(CCC3CCOC(C)(C)C3)nc3c(c2-c2ccc4c(c2)oc(=O)n4Cc2ccc(C#N)c(F)c2)C(=O)N2CCOC[C@@H]32)o1 (stereo partly drawn) [Compound 112, 4-[(6-((4aR,9aR)-6-[2-(2,2-dimethyltetrahydro-2H-pyran-4-yl)ethyl]-7-(5-methyl-1,3,4-oxadiazol-2-yl)-9-oxo-1,2,4,4a-tetrahydro-9H-3-oxa-5,9a-diazafluoren-8-yl}-2-oxo-1,3-benzoxazol-3-yl)methyl]-2-fluorobenzonitrile]
70.2 | 3.67 | Cc1cnc(-c2c(CCC34CCC(CC3)OC4)nc3c(c2-c2ccc4c(c2)OC(C)(C)C(=O)N4Cc2ccc(F)cn2)c(=O)n2n3CCC2)o1 [Compound 159, 9-(4-[(5-fluoro-2-pyridyl)methyl]-2,2-dimethyl-3-oxo-2,4-dihydro-1,4-benzoxazin-7-yl}-10-(5-methyl-1,3-oxazol-2-yl)-11-(2-(2-oxabicyclo[2.2.2]oct-4-yl)ethyl}-2,6,12-triazatricyclo[6.4.0.0^2,6]dodeca-1(12),8,10-trien-7-one]
62.4 | 6.16 | Cc1nnc(-c2c(CCC3CCOCC3)nc3c(c2-c2ccc4c(ccn4C(C)c4ccc(C#N)c(F)c4)c2)C(=O)N2CCOC[C@@H]32)o1 (stereo partly drawn) [Compound 110, 4-[1-(5-((4aR)-7-(5-methyl-1,3,4-oxadiazol-2-yl)-9-oxo-6-[2-(tetrahydro-2H-pyran-4-yl)ethyl]-1,2,4,4a-tetrahydro-9H-3-oxa-5,9a-diazafluoren-8-yl}-1-indolyl)ethyl]-2-fluorobenzonitrile]
58.9 | 1.23 | Cc1nnc(-c2c(CCc3ccc(F)cc3)nc3c(c2-c2ccc4c(c2)oc(=O)n4Cc2ccc(C#N)cn2)c(=O)n2n3CCC2)o1 [Compound 142, 6-[(6-{11-[2-(p-fluorophenyl)ethyl]-10-(5-methyl-1,3,4-oxadiazol-2-yl)-7-oxo-2,6,12-triazatricyclo[6.4.0.0^2,6]dodeca-1(12),8,10-trien-9-yl}-2-oxo-1,3-benzoxazol-3-yl)methyl]nicotinonitrile]
54.7 | 1.49 | Cc1cnc(-c2c(CCC34CCC(CC3)OC4)nc3c(c2-c2ccc4c(c2)OCC(=O)N4Cc2ncc(Cl)cc2F)c(=O)n2n3CCC2)o1 [Compound 156]
